Experimental data: ChEMBL document CHEMBL2074038 (J Pharmacol Exp Ther, 2003)

Target: ATP-dependent translocase ABCB1 (Homo sapiens, UniProt P08183)
Experiment: TP_TRANSPORTER: transepithelial transport in MDR1-expressing LLC-PK1 cells
Format: functional, cell-based
Details: pig

ATP-dependent translocase ABCB1, sequence (P08183 whole entry): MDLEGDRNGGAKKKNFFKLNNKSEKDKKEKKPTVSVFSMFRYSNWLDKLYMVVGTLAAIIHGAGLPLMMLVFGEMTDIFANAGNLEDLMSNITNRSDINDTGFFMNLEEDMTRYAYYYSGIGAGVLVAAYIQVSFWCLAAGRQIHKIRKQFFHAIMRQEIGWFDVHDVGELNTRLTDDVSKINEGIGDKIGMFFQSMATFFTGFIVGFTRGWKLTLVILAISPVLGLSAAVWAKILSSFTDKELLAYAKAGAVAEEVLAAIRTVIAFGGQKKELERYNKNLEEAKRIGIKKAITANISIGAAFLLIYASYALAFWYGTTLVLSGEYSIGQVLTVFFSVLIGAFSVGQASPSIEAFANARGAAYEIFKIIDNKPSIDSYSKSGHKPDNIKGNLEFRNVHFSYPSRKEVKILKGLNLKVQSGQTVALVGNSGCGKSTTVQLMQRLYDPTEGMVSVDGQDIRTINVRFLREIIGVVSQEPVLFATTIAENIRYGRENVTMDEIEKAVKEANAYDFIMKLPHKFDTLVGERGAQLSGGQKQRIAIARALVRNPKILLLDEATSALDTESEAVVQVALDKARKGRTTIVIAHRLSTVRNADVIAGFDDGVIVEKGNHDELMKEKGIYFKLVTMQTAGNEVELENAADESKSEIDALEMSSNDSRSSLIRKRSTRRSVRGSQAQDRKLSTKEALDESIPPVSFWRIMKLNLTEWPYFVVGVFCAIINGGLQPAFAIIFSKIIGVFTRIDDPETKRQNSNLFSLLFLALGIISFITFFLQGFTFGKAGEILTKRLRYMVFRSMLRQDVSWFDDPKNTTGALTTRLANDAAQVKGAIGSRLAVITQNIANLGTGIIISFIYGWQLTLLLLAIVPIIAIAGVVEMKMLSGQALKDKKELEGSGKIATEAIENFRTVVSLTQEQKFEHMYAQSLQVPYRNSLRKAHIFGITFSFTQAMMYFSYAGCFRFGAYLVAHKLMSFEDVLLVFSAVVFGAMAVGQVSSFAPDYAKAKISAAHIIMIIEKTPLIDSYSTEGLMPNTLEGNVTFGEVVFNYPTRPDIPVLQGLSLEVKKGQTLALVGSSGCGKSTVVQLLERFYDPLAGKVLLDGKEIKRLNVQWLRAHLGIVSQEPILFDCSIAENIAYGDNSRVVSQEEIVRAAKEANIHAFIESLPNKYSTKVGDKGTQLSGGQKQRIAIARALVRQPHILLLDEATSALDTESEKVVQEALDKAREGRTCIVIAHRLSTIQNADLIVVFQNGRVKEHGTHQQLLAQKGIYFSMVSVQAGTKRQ

Row | Activity | Structure (SMILES)
1 | substrate [+] | CCn1nc(Cc2ccccc2)cc1C1CCN(Cc2ccc(C3(N(C)[C@@H](C(=O)O)C(C)C)CCCC3)cc2F)CC1
2 | substrate [+] | CC[C@]1(O)C[C@@H]2CN(CCc3c([nH]c4ccccc34)[C@@](C(=O)OC)(c3cc4c(cc3OC)N(C)[C@H]3[C@@](O)(C(=O)OC)[C@H](OC(C)=O)[C@]5(CC)C=CCN6CC[C@]43[C@@H]65)C2)C1 [VINBLASTINE]
